Results reported in publication PMC5218480 (PLoS ONE, 2017).

Test system: MV-4-11 cells
Experiment: Gene expression microarray analysis (Affymetrix PrimeView) and GSEA
Assay type: cell-based, human
Set-up: RFU PODN (11730768_x_at) / Fold change /veh PODN (11730768_x_at) / RFU LINC00158 (11744669_a_at) / Fold change /veh LINC00158 (11744669_a_at) / RFU DUSP10 (11751237_a_at) / Fold change /veh DUSP10 (11751237_a_at) / RFU ID3 (11757404_x_at) / Fold change /veh ID3 (11757404_x_at) / RFU PLEKHG5 (11737974_s_at) / Fold change /veh PLEKHG5 (11737974_s_at) / RFU LRRC4B (11730491_at) / Fold change /veh LRRC4B (11730491_at) / RFU GIMAP4 (11747438_a_at) / Fold change /veh GIMAP4 (11747438_a_at) / RFU KRT8 (11758183_x_at) / Fold change /veh KRT8 (11758183_x_at) / RFU CNN1 (11734310_a_at) / Fold change /veh CNN1 (11734310_a_at) / RFU VPS37D (11726825_at) / Fold change /veh VPS37D (11726825_at) / RFU C10orf10 (11716522_x_at) / Fold change /veh C10orf10 (11716522_x_at) / RFU KIR2DL2 /// KIR2DL4 /// KIR2DL5A /// KIR2DL5B /// KIR2DS1 /// KIR2DS2 /// KIR2DS3 /// KIR2DS4 /// KIR3DL3 /// KIR3DL3 /// KIR3DS1 (11738374_at) / Fold change /veh KIR2DL2 /// KIR2DL4 /// KIR2DL5A /// KIR2DL5B /// KIR2DS1 /// KIR2DS2 /// KIR2DS3 /// KIR2DS4 /// KIR3DL3 /// KIR3DL3 /// KIR3DS1 (11738374_at) / RFU C1QL1 (11718748_at) / Fold change /veh C1QL1 (11718748_at) / RFU TMPRSS4 (11747572_a_at) / Fold change /veh TMPRSS4 (11747572_a_at) / RFU HAMP (11756126_x_at) / Fold change /veh HAMP (11756126_x_at) / RFU RNFT2 (11725882_a_at) / Fold change /veh RNFT2 (11725882_a_at) / RFU NR4A2 (11747474_a_at) / Fold change /veh NR4A2 (11747474_a_at) / RFU ABCC12 (11746883_a_at) / Fold change /veh ABCC12 (11746883_a_at) / RFU TMEM136 (11760407_x_at) / Fold change /veh TMEM136 (11760407_x_at) / RFU CLDN22 /// WWC2 (11732394_at) / Fold change /veh CLDN22 /// WWC2 (11732394_at) / RFU HLA-DPB1 (11760878_x_at) / Fold change /veh HLA-DPB1 (11760878_x_at) / RFU SPINT1 (11716480_a_at) / Fold change /veh SPINT1 (11716480_a_at) / RFU GAP43 (11754022_s_at) / Fold change /veh GAP43 (11754022_s_at) / RFU A4GNT (11735810_at) / Fold change /veh A4GNT (11735810_at) / RFU PRB3 (11715151_x_at) / Fold change /veh PRB3 (11715151_x_at) / RFU TUBB4B (11761932_at) / Fold change /veh TUBB4B (11761932_at) / RFU CAPN14 (11732068_a_at) / Fold change /veh CAPN14 (11732068_a_at) / RFU TMCC2 (11721928_a_at) / Fold change /veh TMCC2 (11721928_a_at) / RFU IRGQ (11745062_a_at) / Fold change /veh IRGQ (11745062_a_at) / RFU FAM174B (11720279_a_at) / Fold change /veh FAM174B (11720279_a_at) / RFU TMPRSS4 (11748680_a_at) / Fold change /veh TMPRSS4 (11748680_a_at) / RFU FAM212B (11763350_a_at) / Fold change /veh FAM212B (11763350_a_at) / RFU PLEKHG5 (11743358_a_at) / Fold change /veh PLEKHG5 (11743358_a_at) / RFU ZSCAN30 (11745921_a_at) / Fold change /veh ZSCAN30 (11745921_a_at) / RFU CMKLR1 (11741424_a_at) / Fold change /veh CMKLR1 (11741424_a_at) / RFU LOC101060620 /// MAPK8IP1 (11723275_at) / Fold change /veh LOC101060620 /// MAPK8IP1 (11723275_at) / RFU SPTSSB (11747773_x_at) / Fold change /veh SPTSSB (11747773_x_at) / RFU PRSS12 (11739890_at) / Fold change /veh PRSS12 (11739890_at) / RFU BIN1 (11741810_x_at) / Fold change /veh BIN1 (11741810_x_at) / RFU WNT11 (11732464_a_at) / Fold change /veh WNT11 (11732464_a_at) / RFU C10orf10 (11716521_a_at) / Fold change /veh C10orf10 (11716521_a_at) / RFU C5orf56 (11738089_at) / Fold change /veh C5orf56 (11738089_at) / RFU CYB561 (11721691_x_at) / Fold change /veh CYB561 (11721691_x_at) / RFU ANKRD19P (11752326_a_at) / Fold change /veh ANKRD19P (11752326_a_at) / RFU OR2T12 /// OR2T33 /// OR2T8 (11738714_s_at) / Fold change /veh OR2T12 /// OR2T33 /// OR2T8 (11738714_s_at) / RFU VCAN (11748164_a_at) / Fold change /veh VCAN (11748164_a_at) / RFU JSRP1 (11732532_at) / Fold change /veh JSRP1 (11732532_at) / RFU KRTAP10-11 (11738290_x_at) / Fold change /veh KRTAP10-11 (11738290_x_at) / RFU MYO3A (11730013_a_at) / Fold change /veh MYO3A (11730013_a_at) / RFU EBF3 (11725865_a_at) / Fold change /veh EBF3 (11725865_a_at) / RFU CAMK2N1 (11719241_x_at) / Fold change /veh CAMK2N1 (11719241_x_at) / RFU C5orf56 (11738088_a_at) / Fold change /veh C5orf56 (11738088_a_at) / RFU OLFML3 (11715873_a_at) / Fold change /veh OLFML3 (11715873_a_at) / RFU LOC100653217 /// NTM (11731650_a_at) / Fold change /veh LOC100653217 /// NTM (11731650_a_at) / RFU MAPK11 (11762145_a_at) / Fold change /veh MAPK11 (11762145_a_at) / RFU FIZ1 (11724087_x_at) / Fold change /veh FIZ1 (11724087_x_at) / RFU OASL (11726364_x_at) / Fold change /veh OASL (11726364_x_at) / RFU SOX15 (11748057_x_at) / Fold change /veh SOX15 (11748057_x_at) / RFU CD79A (11719716_a_at) / Fold change /veh CD79A (11719716_a_at) / RFU HIST1H1D (11736915_at) / Fold change /veh HIST1H1D (11736915_at) / RFU CASKIN2 (11723855_a_at) / Fold change /veh CASKIN2 (11723855_a_at) / RFU LOC730098 (11760151_x_at) / Fold change /veh LOC730098 (11760151_x_at) / RFU OR4N2 (11742367_at) / Fold change /veh OR4N2 (11742367_at) / RFU PRRT2 (11749266_a_at) / Fold change /veh PRRT2 (11749266_a_at) / RFU SNX32 (11753110_a_at) / Fold change /veh SNX32 (11753110_a_at) / RFU CDHR5 (11726645_a_at) / Fold change /veh CDHR5 (11726645_a_at) / RFU RCAN1 (11760418_a_at) / Fold change /veh RCAN1 (11760418_a_at) / RFU FAM167A (11723789_a_at) / Fold change /veh FAM167A (11723789_a_at) / RFU FAM26E (11764081_at) / Fold change /veh FAM26E (11764081_at) / RFU ISYNA1 (11749810_s_at) / Fold change /veh ISYNA1 (11749810_s_at) / RFU ACY1 (11761880_at) / Fold change /veh ACY1 (11761880_at) / RFU 11764098_at / Fold change /veh 11764098_at / RFU SAMD14 (11745864_x_at) / Fold change /veh SAMD14 (11745864_x_at) / RFU NPB (11741838_a_at) / Fold change /veh NPB (11741838_a_at) / RFU TMPRSS6 (11731388_a_at) / Fold change /veh TMPRSS6 (11731388_a_at) / RFU KRTAP10-2 (11738614_at) / Fold change /veh KRTAP10-2 (11738614_at) / RFU ARHGAP8 /// PRR5-ARHGAP8 (11727945_x_at) / Fold change /veh ARHGAP8 /// PRR5-ARHGAP8 (11727945_x_at) / RFU KRTAP5-7 /// NADSYN1 (11734609_at) / Fold change /veh KRTAP5-7 /// NADSYN1 (11734609_at) / RFU RASL12 (11751679_a_at) / Fold change /veh RASL12 (11751679_a_at) / RFU CDKN2B (11736163_a_at) / Fold change /veh CDKN2B (11736163_a_at) / RFU PRF1 (11729649_at) / Fold change /veh PRF1 (11729649_at) / RFU, ZNF638 /// ZNF638-IT1 / Fold change vs veh, ZNF638 /// ZNF638-IT1 / RFU, PANK3 / Fold change vs veh, PANK3 / RFU, SH3YL1 / Fold change vs veh, SH3YL1 / RFU, ZEB2 / Fold change vs veh, ZEB2 / RFU, NRIP1 / Fold change vs veh, NRIP1 / RFU, PTTG1IP / Fold change vs veh, PTTG1IP / RFU, CAPN2 / Fold change vs veh, CAPN2 / RFU, MED14 / Fold change vs veh, MED14 / RFU, SNORA58 / Fold change vs veh, SNORA58 / RFU, C1orf63 / Fold change vs veh, C1orf63 / RFU, LRRFIP1 / Fold change vs veh, LRRFIP1 / RFU, NDUFAF7 / Fold change vs veh, NDUFAF7 / RFU, SLC12A2 / Fold change vs veh, SLC12A2 / RFU, IBTK / Fold change vs veh, IBTK / RFU, ESF1 / Fold change vs veh, ESF1 / Fold change vs veh, TMEM50B / RFU, TAOK1 / Fold change vs veh, TAOK1 / RFU, ACBD3 / Fold change vs veh, ACBD3 / RFU, TMA16 / Fold change vs veh, TMA16 / RFU, RWDD3 / Fold change vs veh, RWDD3 / RFU, BCAT1 / Fold change vs veh, BCAT1 / RFU, EDEM3 / Fold change vs veh, EDEM3 / RFU, TMEM33 / Fold change vs veh, TMEM33 / RFU, WDR75 / Fold change vs veh, WDR75 / RFU, AHCTF1 / Fold change vs veh, AHCTF1 / RFU, TFRC / Fold change vs veh, TFRC / RFU, ZDHHC17 / Fold change vs veh, ZDHHC17 / RFU, NOM1 / Fold change vs veh, NOM1 / RFU, ARL8B / Fold change vs veh, ARL8B / RFU, ZBTB11 / Fold change vs veh, ZBTB11 / RFU, TAMM41 / Fold change vs veh, TAMM41 / RFU, KIAA1704 /// LOC100996395 / Fold change vs veh, KIAA1704 /// LOC100996395 / RFU, ING1 / Fold change vs veh, ING1 / RFU, TRMT61B / Fold change vs veh, TRMT61B / RFU, FUBP3 / Fold change vs veh, FUBP3 / RFU, TP53 / Fold change vs veh, TP53 / RFU, TNKS2 / Fold change vs veh, TNKS2 / RFU, ZFP14 / Fold change vs veh, ZFP14 / RFU, ACTR2 / Fold change vs veh, ACTR2 / RFU, PPP3R1 / Fold change vs veh, PPP3R1 / RFU, PIK3R1 / Fold change vs veh, PIK3R1 / RFU, HNRNPA1 / Fold change vs veh, HNRNPA1 / RFU, RNF170 / Fold change vs veh, RNF170 / RFU, ZNF28 / Fold change vs veh, ZNF28 / RFU, RNGTT / Fold change vs veh, RNGTT / RFU, OGT / Fold change vs veh, OGT / RFU, BRD1 / Fold change vs veh, BRD1 / RFU, MARS / Fold change vs veh, MARS / RFU, ZNF655 / Fold change vs veh, ZNF655 / RFU, FAHD1 / Fold change vs veh, FAHD1 / RFU, BDP1 / Fold change vs veh, BDP1 / RFU, LRRCC1 / Fold change vs veh, LRRCC1 / RFU, ARID1A / Fold change vs veh, ARID1A / RFU, ZNF146 / Fold change vs veh, ZNF146 / RFU, ZNF330 / Fold change vs veh, ZNF330 / RFU, GPN3 / Fold change vs veh, GPN3 / RFU, C9orf123 / Fold change vs veh, C9orf123 / RFU, N4BP2L2 / Fold change vs veh, N4BP2L2 / RFU, ARFIP1 / Fold change vs veh, ARFIP1 / RFU, FAM179B / Fold change vs veh, FAM179B / RFU, BCL10 / Fold change vs veh, BCL10 / RFU, UHRF1BP1L / Fold change vs veh, UHRF1BP1L / RFU, BET1 / Fold change vs veh, BET1 / RFU, CNOT2 / Fold change vs veh, CNOT2 / RFU, ZNF268 / Fold change vs veh, ZNF268 / Fold change vs veh, ZNF507 / RFU, DGCR2 / Fold change vs veh, DGCR2 / RFU, WDSUB1 / Fold change vs veh, WDSUB1 / Fold change vs veh, HSP90B1 /// MIR3652 / RFU, ADSS / Fold change vs veh, ADSS / RFU, GK / Fold change vs veh, GK / RFU, ZNF148 / Fold change vs veh, ZNF148 / RFU, TAF9 / Fold change vs veh, TAF9 / RFU, SLC1A5 / Fold change vs veh, SLC1A5 / RFU, SLMO2 / Fold change vs veh, SLMO2 / RFU, ABCC4 / Fold change vs veh, ABCC4 / RFU, LOC101060439 /// RAP1B / Fold change vs veh, LOC101060439 /// RAP1B / RFU, RFX7 / Fold change vs veh, RFX7 / RFU, GTPBP10 / Fold change vs veh, GTPBP10 / RFU, CNEP1R1 / Fold change vs veh, CNEP1R1 / RFU, BIVM-ERCC5 /// ERCC5 / Fold change vs veh, BIVM-ERCC5 /// ERCC5 / RFU, ILF3 / Fold change vs veh, ILF3 / RFU 11762660_at / Fold change /veh 11762660_at / RFU VCAN (11757783_s_at) / Fold change /veh VCAN (11757783_s_at) / RFU DDX43 (11728927_at) / Fold change /veh DDX43 (11728927_at) / RFU KRT8 (11758188_x_at) / Fold change /veh KRT8 (11758188_x_at) / RFU NKD1 (11759106_at) / Fold change /veh NKD1 (11759106_at) / RFU SRD5A1 (11742802_a_at) / Fold change /veh SRD5A1 (11742802_a_at) / RFU TPSAB1 /// TPSB2 (11721975_s_at) / Fold change /veh TPSAB1 /// TPSB2 (11721975_s_at) / RFU GSTM3 (11746129_a_at) / Fold change /veh GSTM3 (11746129_a_at) / RFU IL23R (11737362_x_at) / Fold change /veh IL23R (11737362_x_at) / RFU TMEM51 (11727254_a_at) / Fold change /veh TMEM51 (11727254_a_at) / RFU PIWIL2 (11732686_x_at) / Fold change /veh PIWIL2 (11732686_x_at) / RFU ORM1 (11744905_x_at) / Fold change /veh ORM1 (11744905_x_at) / RFU CCDC152 (11743942_at) / Fold change /veh CCDC152 (11743942_at) / RFU ECM1 (11717891_a_at) / Fold change /veh ECM1 (11717891_a_at) / RFU IL23R (11748794_a_at) / Fold change /veh IL23R (11748794_a_at) / RFU TNFAIP8L3 (11732012_x_at) / Fold change /veh TNFAIP8L3 (11732012_x_at) / RFU MBOAT4 (11741988_at) / Fold change /veh MBOAT4 (11741988_at) / RFU 11764193_at / Fold change /veh 11764193_at / RFU TMEM53 (11763286_at) / Fold change /veh TMEM53 (11763286_at) / RFU MAGEB2 (11727129_at) / Fold change /veh MAGEB2 (11727129_at) / RFU TMEM200A (11744735_a_at) / Fold change /veh TMEM200A (11744735_a_at) / RFU CCDC152 (11751479_a_at) / Fold change /veh CCDC152 (11751479_a_at) / RFU FAM211A (11726209_a_at) / Fold change /veh FAM211A (11726209_a_at) / RFU RGS16 (11746705_a_at) / Fold change /veh RGS16 (11746705_a_at) / RFU VCAN (11755009_s_at) / Fold change /veh VCAN (11755009_s_at) / RFU RHOB (11743442_s_at) / Fold change /veh RHOB (11743442_s_at) / RFU RGS16 (11720943_a_at) / Fold change /veh RGS16 (11720943_a_at) / RFU RGS16 (11720944_at) / Fold change /veh RGS16 (11720944_at) / RFU, VPS4B / Fold change vs veh, VPS4B / RFU, CREB1 / Fold change vs veh, CREB1 / RFU, DNAJC13 / Fold change vs veh, DNAJC13 / RFU, GNAQ / Fold change vs veh, GNAQ / RFU, CDK5R1 / Fold change vs veh, CDK5R1 / RFU, ZRANB3 / Fold change vs veh, ZRANB3 / RFU, CUL4A / Fold change vs veh, CUL4A / RFU, CCNY / Fold change vs veh, CCNY / RFU, UFL1 / Fold change vs veh, UFL1 / RFU, COG3 / Fold change vs veh, COG3 / RFU, DIAPH2 / Fold change vs veh, DIAPH2 / RFU, SKA2 / Fold change vs veh, SKA2 / RFU, AFF3 / Fold change vs veh, AFF3 / RFU, LMF1 / Fold change vs veh, LMF1 / RFU, IPO11 / Fold change vs veh, IPO11 / RFU, DFFB / Fold change vs veh, DFFB / RFU, FOXP1 / Fold change vs veh, FOXP1 / RFU, CARD8 / Fold change vs veh, CARD8 / RFU, STRN3 / Fold change vs veh, STRN3 / RFU, ADK / Fold change vs veh, ADK / RFU, RASSF2 / Fold change vs veh, RASSF2 / RFU, WIPF1 / Fold change vs veh, WIPF1 / RFU, LARP1B / Fold change vs veh, LARP1B / RFU, RASA1 / Fold change vs veh, RASA1 / RFU, RB1 / Fold change vs veh, RB1 / RFU, PPFIA1 / Fold change vs veh, PPFIA1 / RFU, MAT2A / Fold change vs veh, MAT2A / RFU, CCT5 / Fold change vs veh, CCT5 / RFU, WDR92 / Fold change vs veh, WDR92 / RFU, CUX1 / Fold change vs veh, CUX1 / RFU, TTC7A / Fold change vs veh, TTC7A / RFU, TMEM135 / Fold change vs veh, TMEM135 / RFU, DEPTOR / Fold change vs veh, DEPTOR / RFU, CPM / Fold change vs veh, CPM / RFU, DNAJB6 / Fold change vs veh, DNAJB6 / RFU, CACNA2D3 / Fold change vs veh, CACNA2D3 / RFU, DTX4 / Fold change vs veh, DTX4 / RFU, TFCP2 / Fold change vs veh, TFCP2 / RFU, GMCL1 /// GMCL1P1 / Fold change vs veh, GMCL1 /// GMCL1P1 / RFU, AEBP2 / Fold change vs veh, AEBP2 / RFU, SNHG1 /// SNORD22 /// SNORD25 /// SNORD26 /// SNORD27 /// SNORD28 /// SNORD29 /// SNORD31 / Fold change vs veh, SNHG1 /// SNORD22 /// SNORD25 /// SNORD26 /// SNORD27 /// SNORD28 /// SNORD29 /// SNORD31 / Fold change (Aza/veh), C12orf56 (ProbeSet 11735607_a_at) / Fold change (ACY-1035/veh), C12orf56 (ProbeSet 11735607_a_at) / Fold change (Aza/veh), FGFR1OP (ProbeSet 11751329_s_at) / Fold change (ACY-1035/veh), FGFR1OP (ProbeSet 11751329_s_at) / Fold change (Aza/veh), VPS36 (ProbeSet 11739960_a_at) / Fold change (ACY-1035/veh), VPS36 (ProbeSet 11739960_a_at) / RFU SYPL1 (11715823_x_at) / Fold change /veh SYPL1 (11715823_x_at) / RFU IGFBP7 (11715501_s_at) / Fold change /veh IGFBP7 (11715501_s_at) / RFU REEP3 (11722064_at) / Fold change /veh REEP3 (11722064_at) / RFU IGLL1 (11728026_x_at) / Fold change /veh IGLL1 (11728026_x_at): dose or concentration left out as unconfirmed
Conditions: MV-4-11 cells, 48 hours

## Nc1ncn([C@@H]2O[C@H](CO)[C@@H](O)[C@H]2O)c(=O)n1 [azacitidine]
  Fold change /veh C5orf56 (11738088_a_at): 0.98
